{"source": "ChEMBL document CHEMBL2010717", "about": "“Design of oxobenzimidazoles and oxindoles as novel androgen receptor antagonists” (Bioorg Med Chem Lett, 2012)", "key": {"[1]": {"assay": "Aqueous solubility of the compound", "assay_type": "physicochemical"}, "[2]": {"target": "T1, Androgen receptor (Homo sapiens, UniProt P10275)", "T1 sequence (P10275 whole entry)": "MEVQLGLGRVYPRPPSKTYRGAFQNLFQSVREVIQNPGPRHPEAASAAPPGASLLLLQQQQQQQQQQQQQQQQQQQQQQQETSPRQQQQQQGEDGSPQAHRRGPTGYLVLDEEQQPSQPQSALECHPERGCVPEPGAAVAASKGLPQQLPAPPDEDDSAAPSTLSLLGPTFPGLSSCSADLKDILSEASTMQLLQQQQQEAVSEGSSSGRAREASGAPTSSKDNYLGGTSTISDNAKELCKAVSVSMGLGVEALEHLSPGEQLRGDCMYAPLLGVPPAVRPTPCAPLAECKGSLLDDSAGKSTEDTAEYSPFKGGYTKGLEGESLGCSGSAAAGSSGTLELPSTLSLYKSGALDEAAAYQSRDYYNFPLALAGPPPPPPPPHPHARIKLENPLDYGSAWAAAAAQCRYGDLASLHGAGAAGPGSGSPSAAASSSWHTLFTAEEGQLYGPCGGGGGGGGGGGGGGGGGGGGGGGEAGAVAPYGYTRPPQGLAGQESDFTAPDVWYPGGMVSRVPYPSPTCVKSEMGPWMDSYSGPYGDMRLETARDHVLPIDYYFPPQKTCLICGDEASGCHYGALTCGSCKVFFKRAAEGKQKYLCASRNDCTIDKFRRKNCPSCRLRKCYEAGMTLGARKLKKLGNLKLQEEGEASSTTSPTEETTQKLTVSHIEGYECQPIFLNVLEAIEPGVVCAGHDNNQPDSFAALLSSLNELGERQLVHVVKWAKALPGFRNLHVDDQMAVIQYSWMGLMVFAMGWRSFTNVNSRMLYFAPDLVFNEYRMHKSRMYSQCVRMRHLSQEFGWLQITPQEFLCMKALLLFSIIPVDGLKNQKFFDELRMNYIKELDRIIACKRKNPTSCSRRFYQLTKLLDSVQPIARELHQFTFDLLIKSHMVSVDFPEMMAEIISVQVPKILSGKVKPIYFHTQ", "assay": "Antagonist activity at androgen receptor in human LNAR cells expressing ARE-PSA-LUC by luminescence analysis in presence of R1881", "assay_type": "functional, cell-based"}, "[3]": {"target": "T2, Androgen receptor (Homo sapiens) (UniProt P10275)", "T2 sequence (whole entry)": "T1 sequence (P10275 whole entry)", "assay": "Agonist activity at androgen receptor in human LNAR cells expressing ARE-PSA-LUC at 1 uM by luminescence analysis relative to RD-162", "assay_type": "functional, cell-based"}, "[4]": {"assay": "Metabolic stability in human liver microsomes assessed as extraction ratio", "assay_type": "ADME, Microsome", "conditions": "read-out: ERH"}, "[5]": {"target": "T2, Androgen receptor (Homo sapiens)", "assay": "Antagonist activity at androgen receptor in human LNAR cells expressing ARE-PSA-LUC at 1 uM by luminescence analysis in presence of R1881", "assay_type": "functional, cell-based"}}}
{"smiles": "CC(c1ccccc1)n1c(=O)n(-c2ccc(C#N)c(C(F)(F)F)c2)c2ccccc21", "note": "(stereo in doubt; (-)-20) [listing 1 of 2 here]", "values": [{"measurement": "solubility", "setting": "[1]; aqueous, read-out: solubility", "result": 5.58, "unit": "µM"}, {"measurement": "IC50", "setting": "[2]", "result": 363, "unit": "nM"}]}
{"smiles": "CNC(=O)c1ccc(-c2ccc3c(c2)C(C)(C)C(=O)N3c2ccc(C#N)c(OC)c2)cc1F", "values": [{"measurement": "fold change (FC)", "setting": "[3]", "result": 0.884}, {"measurement": "hepatic extraction ratio", "setting": "[4]", "result": "< 0.25"}, {"measurement": "solubility", "setting": "[1]; aqueous, read-out: solubility", "result": 9.7, "unit": "µM"}, {"measurement": "IC50", "setting": "[2]", "result": 165, "unit": "nM"}]}
{"smiles": "CC(c1ccccc1)n1c(=O)n(-c2ccc(C#N)c(C(F)(F)F)c2)c2ccccc21", "note": "(single isomer, unassigned; (+)) [listing 1 of 2 here]", "values": [{"measurement": "solubility", "setting": "[1]; buffer", "result": 4.41, "unit": "µM"}, {"measurement": "IC50", "setting": "[2]", "result": 292, "unit": "nM"}]}
{"smiles": "Cc1ccc(-n2c(=O)n(-c3ccc(C#N)c(C(F)(F)F)c3)c3ccccc32)cc1", "values": [{"measurement": "fold change (FC)", "setting": "[3]", "result": 0.88}, {"measurement": "inhibition", "setting": "[5]", "result": 12.6, "unit": "%"}, {"measurement": "solubility", "setting": "[1]; aqueous, read-out: solubility", "result": 0.79, "unit": "µM"}]}
{"smiles": "N#Cc1ccc(-n2c(=O)n(Cc3ccccn3)c3ccccc32)cc1C(F)(F)F", "values": [{"measurement": "fold change (FC)", "setting": "[3]", "result": 1.03}, {"measurement": "solubility", "setting": "[1]; aqueous, read-out: solubility", "result": 12, "unit": "µM"}, {"measurement": "IC50", "setting": "[2]", "result": 301, "unit": "nM"}]}
{"smiles": "N#Cc1ccc(-n2c(=O)n(Cc3nc(-c4ccccn4)no3)c3ccccc32)cc1Cl", "values": [{"measurement": "fold change (FC)", "setting": "[3]", "result": 0.941}, {"measurement": "solubility", "setting": "[1]; aqueous, read-out: solubility", "result": 5.9, "unit": "µM"}, {"measurement": "IC50", "setting": "[2]", "result": 126, "unit": "nM"}]}
{"smiles": "CC(c1nc(-c2ccccn2)no1)n1c(=O)n(-c2ccc(C#N)c(Cl)c2)c2ccccc21", "note": "(single isomer, unassigned; (+)) [listing 1 of 2 here]", "values": [{"measurement": "solubility", "setting": "[1]; aqueous, read-out: solubility", "result": 9.45, "unit": "µM"}, {"measurement": "IC50", "setting": "[2]", "result": 178, "unit": "nM"}]}
{"smiles": "CC(c1nc(-c2ccccn2)no1)n1c(=O)n(-c2ccc(C#N)c(Cl)c2)c2ccccc21", "note": "(single isomer, unassigned; (+)) [listing 2 of 2 here]", "values": [{"measurement": "fold change (FC)", "setting": "[3]", "result": 0.874}]}
{"smiles": "CNC(=O)c1ccc(-n2c(=O)n(-c3ccc(C#N)c(C(F)(F)F)c3)c3ccccc32)cc1F", "values": [{"measurement": "fold change (FC)", "setting": "[3]", "result": 1.44}, {"measurement": "inhibition", "setting": "[5]", "result": 28.7, "unit": "%"}, {"measurement": "solubility", "setting": "[1]; aqueous, read-out: solubility", "result": 8.81, "unit": "µM"}]}
{"smiles": "CC(C)n1c(=O)n(-c2ccc(C#N)c(C(F)(F)F)c2)c2ccccc21", "values": [{"measurement": "fold change (FC)", "setting": "[3]", "result": 0.965}, {"measurement": "solubility", "setting": "[1]; aqueous, read-out: solubility", "result": 9.3, "unit": "µM"}, {"measurement": "IC50", "setting": "[2]", "result": 373, "unit": "nM"}]}
{"smiles": "CC(c1nc(-c2ccccn2)no1)n1c(=O)n(-c2ccc(C#N)c(Cl)c2)c2ccccc21", "note": "(stereo in doubt; (-)-23) [listing 1 of 2 here]", "values": [{"measurement": "fold change (FC)", "setting": "[3]", "result": 0.945}]}
{"smiles": "CC(c1ccccc1)n1c(=O)n(-c2ccc(C#N)c(C(F)(F)F)c2)c2ccccc21", "note": "(stereo in doubt; (-)-20) [listing 2 of 2 here]", "values": [{"measurement": "fold change (FC)", "setting": "[3]", "result": 0.833}]}
{"smiles": "CC1(C)C(=O)N(c2ccc(C#N)c(C(F)(F)F)c2)c2ccccc21", "values": [{"measurement": "fold change (FC)", "setting": "[3]", "result": 1.96}, {"measurement": "inhibition", "setting": "[5]", "result": 75.7, "unit": "%"}]}
{"smiles": "N#Cc1ncc(-n2c(=O)n(Cc3ccccc3)c3ccccc32)cc1C(F)(F)F", "values": [{"measurement": "fold change (FC)", "setting": "[3]", "result": 1.04}, {"measurement": "inhibition", "setting": "[5]", "result": 91, "unit": "%"}, {"measurement": "solubility", "setting": "[1]; aqueous, read-out: solubility", "result": 5.3, "unit": "µM"}]}
{"smiles": "N#Cc1ccc(-n2c(=O)n(Cc3cccnc3)c3ccccc32)cc1C(F)(F)F", "values": [{"measurement": "fold change (FC)", "setting": "[3]", "result": 0.984}, {"measurement": "solubility", "setting": "[1]; aqueous, read-out: solubility", "result": 2.5, "unit": "µM"}, {"measurement": "IC50", "setting": "[2]", "result": 389, "unit": "nM"}]}
{"smiles": "N#Cc1ccc(-n2c(=O)n(Cc3ccccc3)c3ccccc32)cc1C(F)(F)F", "values": [{"measurement": "fold change (FC)", "setting": "[3]", "result": 1.04}, {"measurement": "solubility", "setting": "[1]; aqueous, read-out: solubility", "result": "< 0.16", "unit": "µM"}, {"measurement": "IC50", "setting": "[2]", "result": 170, "unit": "nM"}]}
{"smiles": "N#Cc1ccc(-n2c(=O)n(Cc3ccccc3)c3cccnc32)cc1C(F)(F)F", "values": [{"measurement": "fold change (FC)", "setting": "[3]", "result": 1.13}, {"measurement": "solubility", "setting": "[1]; aqueous, read-out: solubility", "result": "< 0.5", "unit": "µM"}, {"measurement": "IC50", "setting": "[2]", "result": 60.6, "unit": "nM"}]}
{"smiles": "CNC(=O)c1ccc(Cn2c(=O)n(-c3ccc(C#N)c(C(F)(F)F)c3)c3ccccc32)cc1F", "values": [{"measurement": "fold change (FC)", "setting": "[3]", "result": 1.08}, {"measurement": "inhibition", "setting": "[5]", "result": 72.5, "unit": "%"}, {"measurement": "solubility", "setting": "[1]; aqueous, read-out: solubility", "result": 9.9, "unit": "µM"}]}
{"smiles": "COc1cc(N2C(=O)C(C)(C)c3cc(-c4cccnc4OC)ccc32)ccc1C#N", "values": [{"measurement": "fold change (FC)", "setting": "[3]", "result": 1.04}, {"measurement": "solubility", "setting": "[1]; aqueous, read-out: solubility", "result": 9.8, "unit": "µM"}, {"measurement": "IC50", "setting": "[2]", "result": 79.6, "unit": "nM"}]}
{"smiles": "CCn1c(=O)n(-c2ccc(C#N)c(C(F)(F)F)c2)c2ccccc21", "values": [{"measurement": "fold change (FC)", "setting": "[3]", "result": 1.08}, {"measurement": "solubility", "setting": "[1]; aqueous, read-out: solubility", "result": 3.47, "unit": "µM"}, {"measurement": "IC50", "setting": "[2]", "result": 293, "unit": "nM"}]}
{"smiles": "CNC(=O)c1ccc(-c2ccc3c(c2)C(C)(C)C(=O)N3c2ccc(C#N)c(C(F)(F)F)c2)cc1F", "values": [{"measurement": "fold change (FC)", "setting": "[3]", "result": 0.941}, {"measurement": "hepatic extraction ratio", "setting": "[4]", "result": 0.4}, {"measurement": "solubility", "setting": "[1]; aqueous, read-out: solubility", "result": 6.25, "unit": "µM"}, {"measurement": "IC50", "setting": "[2]", "result": 197, "unit": "nM"}]}
{"smiles": "N#Cc1ccc(-n2c(=O)[nH]c3ccccc32)cc1C(F)(F)F", "values": [{"measurement": "fold change (FC)", "setting": "[3]", "result": 6.2}, {"measurement": "inhibition", "setting": "[5]", "result": 60.1, "unit": "%"}, {"measurement": "solubility", "setting": "[1]; aqueous, read-out: solubility", "result": 7.9, "unit": "µM"}]}
{"smiles": "N#Cc1ccc(-n2c(=O)n(Cc3ccccc3)c3ncccc32)cc1C(F)(F)F", "values": [{"measurement": "fold change (FC)", "setting": "[3]", "result": 0.951}, {"measurement": "IC50", "setting": "[2]", "result": 588, "unit": "nM"}]}
{"smiles": "CC(c1nc(-c2ccccn2)no1)n1c(=O)n(-c2ccc(C#N)c(Cl)c2)c2ccccc21", "note": "(stereo in doubt; (-)-23) [listing 2 of 2 here]", "values": [{"measurement": "IC50", "setting": "[2]", "result": 189, "unit": "nM"}]}
{"smiles": "N#CCn1c(=O)n(-c2ccc(C#N)c(C(F)(F)F)c2)c2ccccc21", "values": [{"measurement": "fold change (FC)", "setting": "[3]", "result": 1.42}, {"measurement": "inhibition", "setting": "[5]", "result": 94.8, "unit": "%"}, {"measurement": "solubility", "setting": "[1]; aqueous, read-out: solubility", "result": 18.9, "unit": "µM"}]}
{"smiles": "CC(c1ccccc1)n1c(=O)n(-c2ccc(C#N)c(C(F)(F)F)c2)c2ccccc21", "note": "(single isomer, unassigned; (+)) [listing 2 of 2 here]", "values": [{"measurement": "fold change (FC)", "setting": "[3]", "result": 0.904}]}
{"smiles": "N#Cc1ncc(-n2c(=O)n(Cc3ccccc3)c3cccnc32)cc1C(F)(F)F", "values": [{"measurement": "fold change (FC)", "setting": "[3]", "result": 1.1}, {"measurement": "inhibition", "setting": "[5]", "result": 96.3, "unit": "%"}, {"measurement": "solubility", "setting": "[1]; aqueous, read-out: solubility", "result": 1.7, "unit": "µM"}]}
